According to the supplement of paper PMC8617591:

Assays:
[1] = test system: Mycobacterium tuberculosis Erdman (autoluminescent); assay: FIC50 (Loewe) at 50% inhibition (log2); higher = more antagonistic
Procedure: (§1)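 DiaMOND equipotent two-drug combination dose responses against autoluminescent M. tuberculosis Erdman in 8 in vitro models. Read-out is OD600, or luminescence for the intracellular and dormancy models, normalised to untreated wells. Hill-fit Einf, AUC25 and GRinf are potency metrics; FIC50 and FIC90 are Loewe-additivity fractional inhibitory concentrations, given as log2 (negative = synergy). Replicates are averaged.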

[2] = test system: Mycobacterium tuberculosis Erdman (autoluminescent); assay: FIC90 (Loewe) at 90% inhibition (log2); higher = more antagonistic
Procedure: as §1

[3] = test system: Mycobacterium tuberculosis Erdman (autoluminescent); assay: AUC25, normalised area under dose response up to IC25 (fraction (0-1)); higher = more potent at low dose
Procedure: as §1

[4] = test system: Mycobacterium tuberculosis Erdman (autoluminescent); assay: Einf, fitted maximum growth inhibition of combination (fraction); higher = stronger maximal inhibition
Procedure: as §1

[5] = test system: Mycobacterium tuberculosis Erdman (autoluminescent); assay: GRinf, maximum normalised growth rate inhibition (unitless (-1 to 1)); higher = less effect (negative = killing)
Procedure: as §1

NNC(=O)c1ccncc1 [isoniazid] + COc1c(N2C[C@@H]3CCCN[C@@H]3C2)c(F)cc2c(=O)c(C(=O)O)cn(C3CC3)c12 [moxifloxacin]
Settings	AUC25, [3]	Einf, [4]	FIC50, [1]	FIC90, [2]	GRinf, [5]
in vitro model: acidic pH 5.7, time point: constant (~7 days, model-specific)	0.108	0.704	0.476	–	-0.263
in vitro model: acidic pH 5.7, time point: terminal (~4-5 doublings, model-specific)	0.0673	0.923	0.361	0.444	-0.118
in vitro model: intracellular J774, time point: constant = terminal	–	0.993	–	0.465	-0.405

Settings	AUC25, [3]	Einf, [4]	FIC50, [1]	FIC90, [2]	GRinf, [5]
in vitro model: butyrate, time point: constant (~7 days, model-specific)	0.0638	0.926	0.0921	0.134	-0.0481
in vitro model: butyrate, time point: terminal (~4-5 doublings, model-specific)	0.0457	0.969	0.0505	-0.0232	-0.0694
in vitro model: cholesterol 0.05 mM, time point: constant (~7 days, model-specific)	0.121	0.756	0.0749	–	-0.309
in vitro model: cholesterol 0.05 mM, time point: terminal (~4-5 doublings, model-specific)	0.096	0.962	0.0269	0.468	-0.301
in vitro model: cholesterol-high 0.2 mM, time point: constant (~7 days, model-specific)	0.079	0.953	0.049	0.277	-0.524
in vitro model: cholesterol-high 0.2 mM, time point: terminal (~4-5 doublings, model-specific)	0.057	0.995	0.314	0.00349	-0.639
in vitro model: dormancy (butyrate + nitrate, low O2), time point: constant (~7 days, model-specific)	0.076	0.91	0.000113	-0.385	0.143
in vitro model: dormancy (butyrate + nitrate, low O2), time point: terminal (~4-5 doublings, model-specific)	0.0785	0.985	0.0985	0.553	-0.158
in vitro model: standard 7H9 glycerol, time point: constant = terminal	0.0762	0.981	0.317	0.332	-0.218
in vitro model: valerate, time point: constant (~7 days, model-specific)	0.0691	0.863	0.215	–	0.0468
in vitro model: valerate, time point: terminal (~4-5 doublings, model-specific)	0.0467	0.94	0.279	0.294	0.0344

NNC(=O)c1ccncc1 [isoniazid] + NC(=O)c1cnccn1 [pyrazinamide]
Settings	AUC25, [3]	Einf, [4]	FIC50, [1]	FIC90, [2]	GRinf, [5]
in vitro model: acidic pH 5.7, time point: constant (~7 days, model-specific)	0.097	0.857	-0.176	–	-0.422
in vitro model: acidic pH 5.7, time point: terminal (~4-5 doublings, model-specific)	0.0846	0.977	0.19	-0.784	-0.338
in vitro model: intracellular J774, time point: constant = terminal	–	0.964	–	0.267	-0.218

Settings	AUC25, [3]	Einf, [4]	FIC50, [1]	FIC90, [2]	GRinf, [5]
in vitro model: butyrate, time point: constant (~7 days, model-specific)	0.0844	0.931	-0.141	0.439	0.0223
in vitro model: butyrate, time point: terminal (~4-5 doublings, model-specific)	0.053	0.954	-0.11	-0.0985	0.0459
in vitro model: cholesterol 0.05 mM, time point: constant (~7 days, model-specific)	0.112	0.758	–	–	-0.252
in vitro model: cholesterol 0.05 mM, time point: terminal (~4-5 doublings, model-specific)	0.119	0.951	-0.117	–	-0.372
in vitro model: cholesterol-high 0.2 mM, time point: constant (~7 days, model-specific)	0.0915	0.908	0.321	–	-0.322
in vitro model: cholesterol-high 0.2 mM, time point: terminal (~4-5 doublings, model-specific)	0.0717	0.995	0.538	0.4	-0.664
in vitro model: dormancy (butyrate + nitrate, low O2), time point: constant (~7 days, model-specific)	0.0844	0.897	-0.543	-0.165	0.244
in vitro model: dormancy (butyrate + nitrate, low O2), time point: terminal (~4-5 doublings, model-specific)	0.0579	0.984	-0.16	-0.412	-0.119
in vitro model: standard 7H9 glycerol, time point: constant = terminal	0.0332	0.861	-0.124	–	0.248
in vitro model: valerate, time point: constant (~7 days, model-specific)	0.0637	0.78	-0.102	–	0.208
in vitro model: valerate, time point: terminal (~4-5 doublings, model-specific)	0.0551	0.839	0.196	0.67	0.173

NNC(=O)c1ccncc1 [isoniazid] + O=[N+]([O-])c1cn2c(n1)OC[C@@H](OCc1ccc(OC(F)(F)F)cc1)C2 [pretomanid]
Settings	AUC25, [3]	Einf, [4]	FIC50, [1]	FIC90, [2]	GRinf, [5]
in vitro model: acidic pH 5.7, time point: constant (~7 days, model-specific)	0.13	0.866	0.312	–	-0.747
in vitro model: acidic pH 5.7, time point: terminal (~4-5 doublings, model-specific)	0.0878	0.99	0.274	0.597	-0.432
in vitro model: intracellular J774, time point: constant = terminal	–	1	–	0.496	-0.631

Settings	AUC25, [3]	Einf, [4]	FIC50, [1]	FIC90, [2]	GRinf, [5]
in vitro model: butyrate, time point: constant (~7 days, model-specific)	0.0655	0.945	0.776	0.672	-0.0657
in vitro model: butyrate, time point: terminal (~4-5 doublings, model-specific)	0.0383	0.973	0.602	0.403	-0.0769
in vitro model: cholesterol 0.05 mM, time point: constant (~7 days, model-specific)	0.122	0.755	0.145	–	-0.201
in vitro model: cholesterol 0.05 mM, time point: terminal (~4-5 doublings, model-specific)	0.0915	0.922	5.18	0.199	-0.242
in vitro model: cholesterol-high 0.2 mM, time point: constant (~7 days, model-specific)	0.0893	0.875	0.379	–	-0.127
in vitro model: cholesterol-high 0.2 mM, time point: terminal (~4-5 doublings, model-specific)	0.0482	0.982	0.467	0.413	-0.542
in vitro model: dormancy (butyrate + nitrate, low O2), time point: constant (~7 days, model-specific)	0.0671	0.909	0.185	0.145	0.115
in vitro model: dormancy (butyrate + nitrate, low O2), time point: terminal (~4-5 doublings, model-specific)	0.0588	0.983	0.103	0.303	-0.198
in vitro model: standard 7H9 glycerol, time point: constant = terminal	0.0602	0.928	0.303	0.248	0.0614
in vitro model: valerate, time point: constant (~7 days, model-specific)	0.102	0.884	0.537	2.18	-0.208
in vitro model: valerate, time point: terminal (~4-5 doublings, model-specific)	0.0772	0.938	0.495	0.477	0.00535

CC(=O)NC[C@H]1CN(c2ccc(N3CCOCC3)c(F)c2)C(=O)O1 [linezolid] + CO[C@H]1/C=C/O[C@@]2(C)Oc3c(C)c(O)c4c(O)c(c(/C=N/N5CCN(C6CCCC6)CC5)c(O)c4c3C2=O)NC(=O)/C(C)=C\C=C\[C@H](C)[C@H](O)[C@@H](C)[C@@H](O)[C@@H](C)[C@H](OC(C)=O)[C@@H]1C [rifapentine]
Settings	AUC25, [3]	Einf, [4]	FIC50, [1]	FIC90, [2]	GRinf, [5]
in vitro model: acidic pH 5.7, time point: constant (~7 days, model-specific)	0.0817	0.89	0.435	–	-0.248
in vitro model: acidic pH 5.7, time point: terminal (~4-5 doublings, model-specific)	0.0632	0.979	0.277	0.184	-0.205
in vitro model: intracellular J774, time point: constant = terminal	–	0.948	–	-0.637	-0.209

Settings	AUC25, [3]	Einf, [4]	FIC50, [1]	FIC90, [2]	GRinf, [5]
in vitro model: butyrate, time point: constant (~7 days, model-specific)	0.0729	0.876	0.227	-0.305	0.113
in vitro model: butyrate, time point: terminal (~4-5 doublings, model-specific)	0.0445	0.934	0.0572	-0.553	0.0794
in vitro model: cholesterol 0.05 mM, time point: constant (~7 days, model-specific)	0.156	0.718	-0.52	–	-0.0866
in vitro model: cholesterol 0.05 mM, time point: terminal (~4-5 doublings, model-specific)	0.107	0.929	-0.0542	0.274	-0.162
in vitro model: cholesterol-high 0.2 mM, time point: constant (~7 days, model-specific)	0.109	0.966	-0.254	-0.688	-0.499
in vitro model: cholesterol-high 0.2 mM, time point: terminal (~4-5 doublings, model-specific)	0.103	1	0.0666	0.0759	-0.762
in vitro model: dormancy (butyrate + nitrate, low O2), time point: constant (~7 days, model-specific)	0.0497	0.908	0.552	0.666	0.107
in vitro model: dormancy (butyrate + nitrate, low O2), time point: terminal (~4-5 doublings, model-specific)	0.0324	0.979	0.585	0.484	-0.13
in vitro model: standard 7H9 glycerol, time point: constant = terminal	0.0541	0.927	0.266	0.154	-0.0203
in vitro model: valerate, time point: constant (~7 days, model-specific)	0.064	0.849	0.063	–	0.119
in vitro model: valerate, time point: terminal (~4-5 doublings, model-specific)	0.0448	0.935	0.198	0.078	0.0691
